Data on one compound can be found in US9283213B2, “Dihydropyridin-2(1H)-one compounds as S-nitrosoglutathione reductase inhibitors and neurokinin-3 receptor antagonists” (N30 Pharmaceuticals, Inc., priority 2010, dated 2016).

One data set concerns the target T1, GSNOR (Homo sapiens, UniProt P11766).
T1 construct: made in house; host or cells: E. coli
In words: GSNOR assay (inhibition of GSNOR activity in vitro). Format: biochemical. The note with it: 0.240 mM GSNO, 0.300 mM NADH, pH 7.4, 25° C.; read-out: GSNOR inhibitor IC50. How it is done: Various compounds were tested in vitro for their ability to inhibit GSNOR activity.
Pre-cultures were grown from stabs of a GSNOR glycerol stock in 2XYT media containing 100 ug/ml ampicillin after an overnight incubation at 37° C. Cells were then added to fresh 2XYT (4 L) containing ampicillin and grown to an OD (A600) of 0.6-0.9 at 37° C. before induction. GSNOR expression was induced with 0.1% arabinose in an overnight incubation at 20° C.
E. coli cell paste was lysed by nitrogen cavitation and the clarified lysate purified by Ni affinity chromatography on an AKTA FPLC (Amersham Pharmacia). The column was eluted in 20 mM Tris pH 8.0/250 mM NaCl with a 0-500 mM imidazole gradient. […] GSNOR was recovered in the flowthrough fraction and for crystallography is further purified by Q-Sepharose and Heparin flowthrough chromatography in 20 mM Tris pH 8.0, 1 mM DTT, 10 uM ZnSO4.
GSNO and Enzyme/NADH Solutions are made up fresh each day. The Solutions are filtered and allowed to warm to room temperature. GSNO Solution: 100 mM NaPO4 (pH 7.4), 0.480 mM GSNO. 396 μL of GSNO Solution is added to a cuvette followed by 8 μL of test compound in DMSO (or DMSO only for full reaction control) and mixed with the pipette tip. Compounds to be tested are made up at a stock concentration of 10 mM in 100% DMSO. 2 fold serial dilutions are done in 100% DMSO. 8 μL of each dilution are added to an assay so that the final concentration of DMSO in the assay is 1%. The concentrations of compounds tested range from 100 to 0.003 μM. Enzyme/NADH Solution: 100 mM NaPO4 (pH 7.4), 0.600 mM NADH, 1.0 μg/mL GSNO Reductase. 396 μL of the Enzyme/NADH Solution is added to the cuvette to start the reaction. The cuvette is placed in the Cary 3E UV/Visible Spectrophotometer and the change in 340 nm absorbance/min at 25° C. is recorded for 3 minutes. The assays are done in triplicate for each compound concentration. IC50's for each compound are calculated using the standard curve analysis in the Enzyme Kinetics Module of SigmaPlot.
Final assay conditions: 100 mM NaPO4, pH 7.4, 0.240 mM GSNO, 0.300 mM NADH, 0.5 μg/mL GSNO Reductase and 1% DMSO. Final volume: 800 μL/cuvette.

The nature of data set [1]: Mouse pharmacokinetic (PK) study. Format: in vivo. To be noted: plasma, male BALB/c mice, PO 10 mg/kg vs IV 2 mg/kg, read-out: oral bioavailability (% F). The source says:
The mouse is used to determine the pharmacokinetics of compounds of the invention. This species is widely used to assess the bioavailability of compounds by administering both oral (PO) and intravenous (IV) test articles. Efficacy of the compounds of the invention are compared by assessing plasma exposure in male BALB/c mice either via IV or PO administration at the times of peak activity.
Compounds of the invention are reconstituted in a phosphate buffered saline (PBS)/10% Solutol (HS 15) clear solution resulting in a concentration of 0.2 mg/mL and administered to mice (2 mg/kg) as a single IV dose. Animals dosed via the lateral tail vein. […] The plasma is transferred into labeled polypropylene tubes and frozen at −70° C. until analyzed by LC/MS/MS.
The compounds of the invention are reconstituted in 40% Propylene Glycol/40% Propylene Carbonate/20% of a 5% Sucrose clear solution resulting in a concentration of 2 mg/mL and administered to mice (10 mg/kg) as a single oral dose via gavage. […] The plasma is transferred into labeled polypropylene tubes and frozen at −70° C. until analyzed by LC/MS/MS.
Plasma samples at each timepoint were analyzed using a LC-MS/MS with a lower limit of quantification (LLOQ) of 1 ng/mL. […]
In addition to the above PK parameters, bioavailability (% F) was calculated.

T1 sequence (P11766 whole entry): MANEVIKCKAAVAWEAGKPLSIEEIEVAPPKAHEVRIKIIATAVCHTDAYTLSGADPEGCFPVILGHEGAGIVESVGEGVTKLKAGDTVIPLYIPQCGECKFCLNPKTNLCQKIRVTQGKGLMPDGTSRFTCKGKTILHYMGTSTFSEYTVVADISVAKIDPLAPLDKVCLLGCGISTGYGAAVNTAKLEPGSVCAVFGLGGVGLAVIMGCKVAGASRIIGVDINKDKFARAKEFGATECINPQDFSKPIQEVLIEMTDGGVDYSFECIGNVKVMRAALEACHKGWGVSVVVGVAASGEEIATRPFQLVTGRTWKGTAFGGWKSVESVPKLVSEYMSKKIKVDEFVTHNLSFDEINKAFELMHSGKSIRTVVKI

In general, IC50 refers to the midpoint of a concentration-inhibition curve. Usually bioavailability stands for dose-corrected exposure relative to a reference, in per cent. As to `O=C1CC(c2ccc(C(=O)O)c(O)c2)C(c2ccccc2)=C(c2ccccc2)N1` (centres unmarked) [Example 6, 2-hydroxy-4-(2-oxo-5,6-diphenyl-1,2,3,4-tetrahydropyridin-4-yl)benzoic acid], the IC50 on GSNOR was less than 100 nM. Besides, the bioavailability in data set [1] was 22%.
